Data on one substance can be found in US20220288156A1, “TREATMENT” (QUEEN MARY UNIVERSITY OF LONDON, priority 2019, published 2022).

For the assay, the system named is cardiomyocytes. Description: Cardiomyocyte size assessment after angiotensin II. The class given is cell-based, mouse. To be noted: 1 μM angiotensin II vs vehicle. The method, then: For cardiomyocyte hypertrophy assessment, 1 μM angiotensin II (Alfa Aesar, ThermoFisher Scientific) was added to cardiomyocyte growth media post serum starvation (i.e. 6 days post-culture), and this was refreshed the next day. Images of cardiomyocytes were captured using a bright field microscope at 40× magnification at 0, 24, and 48 hours post-angiotensin II treatment and analysed using ImageJ™ software.

On to “angiotensin II (DRVYIHPF; Angiotensin-2; UniProt P01019 25-32, looked up) [AngII, used to mimic the molecular stress of heart failure in cardiomyocytes]”, for which the cardiomyocyte cell size entry is listed as “significant increase in cell size”.
